Test results: patent publication US10874856B2, “Device for treating a cutaneous ulcer” (priority 2013, dated 2020)

Columns and labels:
[1] = tested on: Raynaud's attacks and ulcers; conditions: intravenous, versus placebo; cited from earlier work
[2] = tested on: digital ulcers; conditions: cited from earlier work
[3] = tested on: skin blood flow; assay: Continuous cathodal iontophoresis on the forearm of healthy volunteers, skin blood flow by laser Doppler imaging; type: in vivo, human; conditions: 250 μM treprostinil, cathodal iontophoresis 20 minutes
Experimental: A clinical study then included 20 healthy volunteers. These subjects received 3 concentrations of treprostinil via continuous cathodal iontophoresis on the forearm for 20 minutes and a control iontophoresis of 0.9% NaCl. Skin blood flow was quantified by laser Doppler imaging.
This effect is expressed as cutaneous vascular conductance (CVC; percentage of the baseline) recorded up to 24 hours.
To implement iontophoresis on the forearm, several iontophoresis chambers containing treprostinil liquid solution in contact with a cathode, and an anode at a distance of about 15 cm from the cathode, are placed on the inside of the forearm of each patient. […] Treprostinil liquid solution was in direct contact with the subject's skin.

[4] = Treprostinil quantification in dermal dialysate fluid (microdialysis, HPLC-MS/MS), forearm; type: in vivo, human; conditions: post-iontophoresis
Description: The use of treprostinil to impregnate a primary dressing has the advantage of making it possible to cover larger areas of skin. However, it was not obvious that the results obtained by iontophoresis of treprostinil in liquid solution form in direct contact with the patient's skin could be obtained with the embodiment in accordance with the invention.

[5] = Treprostinil plasma assay (HPLC-MS/MS) after iontophoresis on forearm and fingers; type: in vivo, human; conditions: after iontophoresis for 20 minutes on the forearm and for 2 hours on the fingers
Experimental: However, the fact that the patient's skin is in extended contact with an active substance is likely to involve the systemic passage of treprostinil. The Inventors thus assayed treprostinil in the plasma using high-performance liquid chromatography coupled to tandem mass spectrometry after iontophoresis for 20 minutes on the forearm and for 2 hours on the fingers.

[6] = tested on: blood flow in the pad of the finger; assay: Iontophoresis of treprostinil impregnating a primary dressing on the finger pad, laser speckle contrast imaging of blood flow; type: in vivo, human
Experimental: FIG. 3 reproduces an image obtained by laser speckle contrast imaging of blood flow in the pad of the index finger treated by iontophoresis of treprostinil impregnating a primary dressing and in the pad of the middle finger of the same hand treated by iontophoresis of 0.9% NaCl impregnating another primary dressing, in a healthy subject. The iontophoresis was carried out under the following conditions: 240 mC/cm^2, direct current. Two 7.2 cm^2 Ag—AgCl electrodes (Iogel, Iomed Inc., Salt Lake City, Utah, USA) were soaked in 1.5 ml of treprostinil or NaCl solution (double-blind).
These drug-soaked electrodes were connected to the cathode, while the anode was connected to passive electrodes attached at a distance of 10 cm. Low-voltage computer-controlled generators were used (PF 751 Perilont USB Power Supply, Perimed, Järfálla, Sweden). The voltage was recorded continuously in order to estimate the skin's resistance.
FIG. 4 reproduces an image obtained by laser speckle contrast imaging of blood flow in the pad of a ring finger treated by iontophoresis of treprostinil impregnating a primary dressing and in the pad of the middle finger of the same hand treated by iontophoresis of 0.9% NaCl, in a subject with scleroderma. The variation in blood flow is represented in same manner as in FIG. 3.

[7] = Plasma treprostinil concentration in scleroderma patients post-iontophoresis; type: in vivo; conditions: human, other: cathodal iontophoresis, 250 μM, 30 minutes post-iontophoresis
[8] = tested on: skin blood flow; conditions: rat
[9] = tested on: skin blood flow; conditions: 12 scleroderma patients, 250 μM, direct current, 240 mC/cm^2

For CC#CCC(C)[C@H](O)/C=C/[C@@H]1[C@H]2C/C(=C/CCCC(=O)O)C[C@H]2C[C@H]1O (stereo partly drawn) [iloprost], the “frequency of Raynaud's attacks and healing time of ulcers” value [1] is listed as “provided an advantage”.

For COc1ccccc1Oc1c(NS(=O)(=O)c2ccc(C(C)(C)C)cc2)nc(-c2ncccn2)nc1OCCO [bosentan], the “risk of developing new ulcers” value ([2]; RAPIDS-2 study) is listed as “significantly reduced the risk” and the “healing of preexisting ulcers” value ([2]; in vivo) is listed as “no advantage”.

For CCCCC[C@H](O)CC[C@@H]1[C@H]2Cc3cccc(OCC(=O)O)c3C[C@H]2C[C@H]1O [treprostinil], the “cutaneous vascular conductance AUC80 min” value [3] was 31,897±24,390 % BL·min, the “time treprostinil present in the dermis of the forearm (average)” value [4] was “up to 8 hours” and the “systemic passage (plasma quantification)” value [5] was “negligible systemic passage”. For the same compound, the “vasomotor effect on finger pad, healthy subject (FIG. 3)” value ([6]; healthy subject, index finger, 240 mC/cm^2, direct current) was “marked vasomotor effect”, the “vasomotor effect on finger pad, subject with scleroderma (FIG. 4)” value ([6]; subject with scleroderma, ring finger) was “marked vasomotor effect” and the concentration at 30 min [7] was less than 1.8 pg/mL. The cutaneous vasodilatation ([8]; 20 minutes of cathodal iontophoresis at 100 μA, liquid solution in direct contact with skin) was “caused cutaneous vasodilatation”, the “persistence of effect after iontophoresis is over” value ([8]; cathodal iontophoresis) was “at least 60 minutes” and the “local toxicity, clinically and after systematic skin biopsies” value ([8]; in vivo) was “No sign of local toxicity”. For the same compound, the “effect on skin blood flow absent current or with anodal current” value ([8]; no current or anodal current) was “no effect on skin blood flow”, the skin blood flow [9] was “increase in skin blood flow” and the tolerance [9] was “well tolerated”.
